Test results: patent US12691141B2, “Use of micro- and nano-MgH2 compound particles in inhibition of leishmania infection and treatment of leishmaniasis” (SHANGHAI JIAO TONG UNIVERSITY, priority 2020, dated 2026)

Assays:
Leishmania = assay: Cure time of skin/mucosal ulcer and impaired organ function caused by Leishmania; conditions: in vivo
[1] = existing studies; cited from earlier work
Leishmaniabraziliensis = assay: Skin ulceration of Leishmania-infected hamsters; format: in vivo, hamsters (Mesocricetus auratus); conditions: 200 μg/mL subcutaneous injection at ulcer site 100 μL/mouse/d
Method: 2) Research on the treatment with micro- and nano-MgH2 compound particles: • 2.1 MgH2 compound particles with a particle diameter of 100 nm to 1,000 nm were first dissolved in a phosphoric acid buffer to prepare 5 concentration groups (1 mg/100 uL, 3 mg/100 uL, 5 mg/100 uL, 10 mg/100 uL, and 15 mg/100 uL). • 2.2 A Leishmaniabraziliensis-infected mouse model was established, which was specified as follows:
Various hamsters (Mesocricetus auratus) were selected, the lower dorsal margin was shaved, and Leishmania (1 million/100 uL/mouse) was injected subcutaneously at 2 cm of an upper margin of a tail. […] MgH2 compound particles (with a particle size of 100 nm to 1,000 nm) at different concentrations (100 uL) were smeared to a skin lesion of an infected hamster once every 24 h continuously for 14 d. An untreated group (namely, a blank control group, infected mice were not treated) and an antimony preparation subcutaneous injection group (sodium antimony gluconate (5-valent antimony preparation, 200 μg/mL) was injected subcutaneously at an ulcer site 100 μL/mouse/d) were set.

## sodium antimony gluconate [Antimony preparation]
Leishmania
  cure time: 1 to 3 months
[1]
  side effects: serious liver and kidney function damage
Leishmaniabraziliensis; day 0
  Healing rate of a skin ulceration wound: 0%
Leishmaniabraziliensis; day 3
  Healing rate of a skin ulceration wound: 15.3 ± 2.0%
Leishmaniabraziliensis; day 7
  Healing rate of a skin ulceration wound: 75.2 ± 4.8%
Leishmaniabraziliensis; day 14
  Healing rate of a skin ulceration wound: 88.9 ± 5.1%
